The source of these data is article PMC4844176 (Xenobiotica; the fate of foreign compounds in biological …, 2015).

The target in data set [1] is T1, UGT1A1 (Homo sapiens, UniProt P22309).
T1 sequence (P22309 26-533): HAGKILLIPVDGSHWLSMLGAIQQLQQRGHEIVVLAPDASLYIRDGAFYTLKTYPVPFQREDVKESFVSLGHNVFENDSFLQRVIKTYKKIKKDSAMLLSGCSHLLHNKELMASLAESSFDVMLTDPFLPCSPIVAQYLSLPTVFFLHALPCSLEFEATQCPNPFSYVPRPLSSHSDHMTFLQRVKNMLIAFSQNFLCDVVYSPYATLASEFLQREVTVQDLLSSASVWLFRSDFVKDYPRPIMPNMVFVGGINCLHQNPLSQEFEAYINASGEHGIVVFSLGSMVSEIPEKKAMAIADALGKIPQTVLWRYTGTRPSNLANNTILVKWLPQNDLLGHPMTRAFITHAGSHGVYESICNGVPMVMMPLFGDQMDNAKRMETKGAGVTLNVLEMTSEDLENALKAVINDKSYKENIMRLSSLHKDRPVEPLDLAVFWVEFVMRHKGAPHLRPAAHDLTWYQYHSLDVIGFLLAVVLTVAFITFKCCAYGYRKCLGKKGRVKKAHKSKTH
The data set can be described thus: Screening for aprepitant glucuronidation, UGT1A1 Supersomes. Format: in vitro ADME. Conditions: UGT1A1, 5 and 250 µM aprepitant.

Data set [2] concerns the target T2, UGT2B10 (Homo sapiens, UniProt P36537).
T2 sequence (P36537 24-528): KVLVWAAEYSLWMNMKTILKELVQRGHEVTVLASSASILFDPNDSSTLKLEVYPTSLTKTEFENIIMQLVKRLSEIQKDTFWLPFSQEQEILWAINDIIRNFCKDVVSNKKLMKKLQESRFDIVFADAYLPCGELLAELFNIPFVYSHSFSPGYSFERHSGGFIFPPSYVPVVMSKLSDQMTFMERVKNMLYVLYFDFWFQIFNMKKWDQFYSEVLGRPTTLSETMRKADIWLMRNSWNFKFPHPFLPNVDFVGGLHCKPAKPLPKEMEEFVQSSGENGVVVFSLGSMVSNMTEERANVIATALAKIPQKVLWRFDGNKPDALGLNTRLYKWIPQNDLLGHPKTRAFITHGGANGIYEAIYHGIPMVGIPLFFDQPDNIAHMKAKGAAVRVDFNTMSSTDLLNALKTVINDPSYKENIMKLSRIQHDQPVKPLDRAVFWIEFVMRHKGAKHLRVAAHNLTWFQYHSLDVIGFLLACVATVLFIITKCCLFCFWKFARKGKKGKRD
Description: Screening for aprepitant glucuronidation, UGT2B10 Supersomes. Format: in vitro ADME. Conditions: UGT2B10, 5 and 250 µM aprepitant.

Data set [3] deals with T3, UGT2B17 (Homo sapiens, UniProt O75795).
T3 sequence (O75795 24-530): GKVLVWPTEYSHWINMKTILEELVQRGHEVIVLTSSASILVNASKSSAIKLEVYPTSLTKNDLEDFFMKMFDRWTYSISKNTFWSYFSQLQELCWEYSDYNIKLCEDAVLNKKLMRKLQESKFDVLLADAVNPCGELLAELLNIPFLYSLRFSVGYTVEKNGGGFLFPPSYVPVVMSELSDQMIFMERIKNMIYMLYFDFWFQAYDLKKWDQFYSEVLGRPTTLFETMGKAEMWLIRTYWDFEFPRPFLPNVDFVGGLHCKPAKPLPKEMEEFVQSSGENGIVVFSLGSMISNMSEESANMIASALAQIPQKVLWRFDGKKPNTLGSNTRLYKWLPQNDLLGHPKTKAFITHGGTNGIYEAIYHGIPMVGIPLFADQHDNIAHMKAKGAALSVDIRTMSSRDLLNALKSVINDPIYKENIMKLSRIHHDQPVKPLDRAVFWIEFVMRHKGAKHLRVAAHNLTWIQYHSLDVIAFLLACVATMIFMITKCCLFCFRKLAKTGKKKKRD
Description: Screening for aprepitant glucuronidation, UGT2B17 Supersomes. To be noted: UGT2B17, 5 and 250 µM aprepitant. In kind it is in vitro ADME.

For data set [4], the target named is T4, UGT1A3 (Homo sapiens, UniProt P35503).
T4 sequence (P35503 29-534): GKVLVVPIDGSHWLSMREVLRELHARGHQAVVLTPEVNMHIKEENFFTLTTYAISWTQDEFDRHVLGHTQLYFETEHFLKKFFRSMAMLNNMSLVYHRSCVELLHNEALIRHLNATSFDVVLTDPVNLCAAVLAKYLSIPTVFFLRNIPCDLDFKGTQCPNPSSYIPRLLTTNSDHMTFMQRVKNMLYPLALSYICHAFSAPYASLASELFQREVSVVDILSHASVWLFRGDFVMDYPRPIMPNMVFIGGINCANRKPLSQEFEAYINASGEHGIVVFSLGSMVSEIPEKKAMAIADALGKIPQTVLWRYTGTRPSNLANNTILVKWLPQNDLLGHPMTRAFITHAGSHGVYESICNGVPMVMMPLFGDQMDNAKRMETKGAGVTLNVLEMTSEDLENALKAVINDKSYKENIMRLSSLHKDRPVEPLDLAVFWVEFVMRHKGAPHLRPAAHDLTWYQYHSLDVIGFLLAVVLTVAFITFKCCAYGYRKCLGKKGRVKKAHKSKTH
Conditions: pH 7.5; for velocity of AP-G formation: 60 min.

Data set [5] has as its target T5, UGT2B7 (Homo sapiens, UniProt P16662).
T5 sequence (P16662 24-529): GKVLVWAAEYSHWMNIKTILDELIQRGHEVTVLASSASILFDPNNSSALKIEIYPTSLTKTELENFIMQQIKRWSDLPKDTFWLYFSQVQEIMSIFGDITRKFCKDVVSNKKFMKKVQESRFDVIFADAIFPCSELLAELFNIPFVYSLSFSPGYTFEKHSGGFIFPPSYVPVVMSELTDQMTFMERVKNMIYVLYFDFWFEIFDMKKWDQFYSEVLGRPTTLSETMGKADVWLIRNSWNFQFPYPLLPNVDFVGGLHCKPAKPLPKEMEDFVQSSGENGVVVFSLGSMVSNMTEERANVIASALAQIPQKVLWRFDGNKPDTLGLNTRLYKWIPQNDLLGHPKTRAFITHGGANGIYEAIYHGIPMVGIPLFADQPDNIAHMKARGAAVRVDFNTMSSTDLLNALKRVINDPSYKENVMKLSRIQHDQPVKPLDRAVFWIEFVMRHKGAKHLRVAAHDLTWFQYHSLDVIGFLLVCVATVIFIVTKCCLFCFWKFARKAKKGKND
The data set can be described thus: biochemical.

Structures are written as SMILES. “And” between values parts separate entries of the source, which are not always exact repeats. Equal entries are not always repeated. Where two headings read alike, the source gives them in different places.

Take `C[C@@H](O[C@H]1OCCN(Cc2n[nH]c(=O)[nH]2)[C@H]1c1ccc(F)cc1)c1cc(C(F)(F)F)cc(C(F)(F)F)c1` [aprepitant, Aprepitant]: the AP-G formation entry in data set [1], in data set [2] and in data set [3] was “not detected” throughout. The “velocity of AP-G formation” value in data set [4] (5 µM) stood at 44.1 ± 0.7 fmol/min/mg protein; in data set [4] (250 µM), 717.3 ± 18.6 fmol/min/mg protein. Moreover, in data set [4] (recombinant enzyme), the CLint was 15 µl/min/µg protein. For the same compound, the Ki – broadly, a dissociation constant, usually derived from enzyme kinetics or from competition with a known ligand – in data set [5] is ~10 µM and 7.4 µM and 16.3 µM and 6.7 µM.
